Entries after “also recorded” stand apart in the source; their conditions may differ.
Experiments:
[1] = tested on: E. coli; assay: Fluorescent histone and fluorescent LL-37 uptake in E. coli; format: cell-based, Escherichia coli; settings: 1 hour; for AF-H2A uptake (cellular fluorescence): 10 μg/mL AF-H2A alone or with 10 μg/mL Cam, 50 μg/mL Kan, 2 μM LL-37, 1 μg/mL PMB or 10 μM MAG2, 1 mM magnesium
Protocol: E. coli strain MG1655 or S. aureus strain RN4220 was cultured to an OD600 of 0.2, and diluted 1:20 into fresh minimal medium containing 1 mM MgSO4. H2A uptake in E. coli was measured by adding 10 μg/mL AF-H2A (1% Alexa Fluor-labeled H2A mixed with 99% unlabeled H2A) and 10 μg/mL Cam, 50 μg/mL Kan, 2 μM LL-37, 1 μg/mL PMB, or 10 μM MAG2, incubating for 1 hour, and analyzing using fluorescence microscopy. H2A uptake in S. aureus was measured using same concentrations of AF-H2A and LL-37. To measure uptake in low ionic conditions, E. coli was grown to OD600 of 0.2 in minimal medium containing 1 mM MgSO4, and diluted 1:20 into fresh minimal medium containing 1 μM or 1 mM MgSO4. H2A uptake in E. coli was measured by adding 10 μg/mL AF-H2A (1% Alexa Fluor-labeled H2A mixed with 99% unlabeled H2A), incubating for up to 3 hours, and analyzing using fluorescence microscopy. LL-37 uptake in both bacteria was measured by adding 1 μM fluorescently-labeled LL-37 (1% 5-FAM-LC-LL-37 (Anaspec) mixed with 99% unlabeled LL-37) or additionally with 10 μg/mL unlabeled H2A, incubating for 1 hour, and imaging using fluorescence microscopy. Time-lapse measurements of LL-37 uptake in E. coli were performed by adding 2 μM fluorescently-labeled LL-37 (3% 5-FAM-LC-LL-37 mixed with 97% unlabeled LL-37) or additional 10 μg/mL unlabeled H2A, immobilizing on agarose pads, and imaging using fluorescence microscopy. Cell membranes were visualized by adding 1.6 μM FM4-64 (MilliporeSigma, Burlington, Mass.), immobilizing on agarose pads, and imaging using fluorescence microscopy.

[2] = tested on: E. coli; format: cell-based, Escherichia coli; settings: 1 mM magnesium; 10 μg/mL H2A, 2 μM LL-37, 10 μM MAG2, 1 μg/mL PMB, 10 μg/mL Kan, 10 μg/mL Cam, alone or combined
Protocol: Growth curve experiments were performed using a Synergy HTX multi-mode plate reader and sterile, tissue-culture treated, clear bottom, black polystyrene 96-well microplates (Corning). The temperature setpoint was 37° C. and preheated before beginning measurements. Each well contained 200 μL of total bacterial solution. For experiments performed with stationary phase bacteria, overnight cultures of bacteria were grown overnight to saturation, diluted 1:1000 into minimal medium with 1 μM or 1 mM MgSO4, and supplemented with H2A, LL-37, kanamycin, chloramphenicol, or polymyxin B. For experiments performed with exponential phase bacteria, overnight cultures of bacteria were sub-cultured in fresh minimal medium containing 1 mM MgSO4 and grown to an optical density at 600 nm (OD600) of 0.2. Exponential-phase bacteria were diluted 1:20 into fresh minimal medium with 1 μM or 1 mM MgSO4, and supplemented with H2A, LL-37, magainin-2, kanamycin, chloramphenicol, or polymyxin B. After adding antimicrobial agents, bacterial cultures were immediately added to the 96-well microplates for growth measurements. Growth curves were constructed by taking measurements every 15 minutes for up to 48 hours. Shaking was set to continuous orbital, with a frequency of 282 cpm (3 mm). The read speed was normal, with a 100 msec delay, and 8 measurements per data points.

[3] = tested on: E. coli; assay: In vivo transcription assay (tet-inducible mCherry); format: cell-based, Escherichia coli; settings: 1-hour pre-treatment with 10 μg/mL H2A, 2 μM LL-37 or both; anhydrotetracycline 1 hour
Protocol: To determine how histone entry into the bacterial cell impacts transcription, MAL190 was cultured to mid-exponential phase, diluted 1:20 in MinA minimal medium, treated with 10 μg/mL Histone H2A and/or 2 μM LL-37, incubated for 1 hour, and induced for transcription using 50 ng/mL of anhydrotetracycline. The fluorescence of mCherry was measured after 1 hour using fluorescence microscopy.

[4] = tested on: E. coli; assay: Timelapse of E. coli recovery and time course of membrane healing (CFP, PI); format: cell-based, Escherichia coli; settings: then washed
Protocol: To quantify the time-course of recovery in E. coli treated with LL-37 alone or with the synergistic combination of LL-37 and H2A, MAL204 was cultured to mid-exponential phase in MinA minimal medium, added 1 μM LL-37 or 1 μM LL-37 with 10 μg/mL H2A, and incubated for 1 hour. The solution was filtered through a 0.22 μm filter to remove excess LL-37 and H2A and cells were resuspended in fresh minimal medium. Cells were immobilized on a 1% agarose pad and imaged over an hour time period.
To quantify the time-course of membrane repair in bacteria treated with H2A alone, AMPs alone, or the synergistic combination of AMPs and H2A, MAL204 was grown to mid-exponential phase in MinA minimal medium, diluted 1:20 with 10 μg/mL H2A, 1 μM LL-37, 1 μM LL-37 with 10 μg/mL H2A, 10 μM MAG2, or 1 μM MAG2 with 10 μg/mL H2A, and incubated for 1 hour. […] Cells were allowed to recover for 0, 30, 60 minutes before the addition of 30 μM propidium iodide for 15 minutes prior to performing fluorescence microscopy. Intracellular propidium iodide fluorescence and CFP fluorescence were quantified. To quantify the time-course of membrane repair in bacteria treated with H2A in low and physiological environments, MAL204 was grown to mid-exponential phase, diluted 1:20 into minimal media with 1 μM or 1 mM MgSO4, with or without 10 μg/mL H2A, and incubated for 3 hours. […]

[5] = tested on: E. coli; assay: Cell aggregate size and cell size analysis; format: cell-based, Escherichia coli
Protocol: MG1655 were cultured to an OD600 of 0.2, diluted 1:20 into fresh MinA minimal medium, treated with 0-4 μM LL-37 or 0-100 μg/mL H2A, and incubated for 1 hour. Cells were immobilized on an agarose pad using, imaged using phase contrast microscopy, and analyzed using our own custom-written image analysis tools^67,68. version 1.1 that was written in Matlab (Version R2017b; Mathworks, Natick, Mass.). See ‘Code Availability’ section below to download code. The total pixel area of each individual cell was determined by computing the mask area and converting from pixels to μm^2 by multiplying the mask area by a factor of 0.00422 μm^2/pixel to account for the microscope camera pixel size and objective magnification.

[6] = tested on: E. coli; assay: SEM imaging of E. coli; format: cell-based, Escherichia coli; settings: 10 μg/mL H2A, 1 μM LL-37 or both; 1 hour; 1 mM magnesium
Protocol: MG1655 was cultured to an OD600 of 0.2, diluted 1:20, and supplemented with 10 μg/mL H2A and/or 1 μM LL-37. Cells were treated for 1 hour and added to a glass bottomed petri dish for 15 minutes. Due to lower levels of adhesion, control cells were not diluted 1:20 and were incubated in the glass-bottomed petri dish for 45 minutes. Media was removed and 4% paraformaldehyde (PFA) was added for 20 minutes to fix bacteria. Dehydration was performed using serial ethanol dilutions. The fixed and dehydrated samples were coated with 10 nm of iridium using an ACE600 sputter coater (Leica Microsystems, Buffalo Grove, Ill.). Bacteria and surfaces were then characterized using a FEI Magellan 400 XHR Scanning Electron Microscope (FEI Company, Hillsboro, Oreg.) at a 45° tilt angle with an acceleration voltage of 3 kV.

[7] = tested on: E. coli genomic DNA; assay: Non-denaturing nucleic acid PAGE; format: binding, Escherichia coli; settings: 1 μg DNA with 0-1.4 μg H2A or LL-37
Protocol: Overnight MG1655 cultures were grown to saturation in Minimal. DNA purification was performed using a Miniprep kit (Qiagen, Germantown, Md.). A three-second sonication step was performed after lysis to isolate genomic DNA.
10 μL mixtures containing 1 μg purified DNA from MG1655 were incubated with 0-1.4 μg Histone H2A or LL-37 for 25 minutes at 25° C. Gel loading sample buffer (5×, Bio-Rad, Hercules, Calif.) was added to a final concentration of 1× and the products were separated by native PAGE on a 5% TBE gel (Bio-Rad, Hercules, Calif.) at 100 V for 60 minutes. The gel was stained with 1×SYBR safe (Invitrogen, Carlsbad, Calif.) in TBE buffer^71 for 30 minutes before visualization using a EOS Rebel T5 DSLR camera with an f/3.5-5.6 18-55 mm lens (Canon, Huntington, N.Y.) and a DR46B Transilluminator (Clare Chemical, Dolores, Colo.).

[8] = tested on: E. coli; settings: E. coli after 12 hours; reported (ref. 36); cited from earlier work
[9] = tested on: E. coli; assay: Chromosomal analysis using SYTOX and HupA-mRuby2; format: cell-based, Escherichia coli; settings: 10 μg/mL H2A, 2 μM LL-37 or both; 3 hours
Protocol: MG1655 or XL-1 Blue expressing HupA-mRuby2 was cultured to OD600 of 0.2, diluted 1:20 into fresh MinA minimal medium, and treated with 2 μM LL-37, 10 μg/mL H2A or both LL-37 and H2A for 30 minutes. For SYTOX visualization, MG1655 were stained with 3 uM SYTOX Green nucleic acid stain (ThermoFisher, Waltham, Mass.) for 10 minutes. Cells were immobilized on agarose pads containing 2 uM LL-37, 10 μg/mL H2A, or both LL-37 and H2A, and remained on the pad for 3 hours before imaging using the fluorescence microscopy. For SYTOX analysis, pads additionally contained 5 uM SYTOX Green. Raw images were analyzed through principal component analysis using our own custom-written image analysis tools^67,68 version 1.1 and modified in Matlab (Version R2017b; Mathworks, Natick, Mass.). See ‘Code Availability’ section below for code. Individual cells were identified in phase contrast images using canny edge detection and using SuperSegger^70. […] The covariances between corresponding pixels of different cells were computed using the 16 bit intensity values from the rotated and resized fluorescence images and for the same images rotated by an additional 180 degrees. […] The size of each bin was determined by subtracting the minimum principal component score from the maximum principal component score and dividing that by the number of bins along that principal component. […]

With `O=C(N[C@H](CO)[C@H](O)c1ccc([N+](=O)[O-])cc1)C(Cl)Cl` [chloramphenicol, reference compound] the “AF-H2A uptake (cellular fluorescence)” value [1] was “did not induce AF-H2A uptake” and the “E. coli growth (growth rate, lag time)” value [2] was “increased the growth lag time”.

For “LL-37: human cathelicidin antimicrobial peptide LL-37 (Anaspec)”, the “mCherry fluorescence (transcription induction)” value [3] was “little effect on mCherry fluorescence”, the “AF-H2A uptake (cellular fluorescence)” value [1] was “significantly enhanced AF-H2A uptake” and the “LL-37 uptake (5-FAM-LL-37 fluorescence)” value ([1]; fluorescently-labeled LL-37 alone or with 10 μg/mL H2A) was “Fluorescence was observed in the cytoplasm”. The “CFP fluorescence / growth during 1-hour recovery period” value ([4]; 1-hour treatment with 10 μg/mL H2A, 1 μM LL-37, 10 μM MAG2, alone or combined) was “resumed growth and division and retained expression of CFP; also recorded: CFP fluorescence increased or remained the same”, the “PI fluorescence during 1-hour recovery” value ([4]; 1-hour treatment with H2A, LL-37, MAG2, alone or combined) was “significantly lower” and the aggregation of cells ([5]; H2A or LL-37, 1 hour) was “did not induce aggregation”. The cell size ([5]; LL-37 alone, indicated concentrations, 1 hour) was “significant reduction in cell size”, the “cell morphology by SEM” value [6] was “few cell morphological differences” and the “E. coli growth (growth rate, lag time)” value [2] was “decreased the growth rate and slightly extended the lag time”. For the same compound, the “migration / retention of E. coli DNA in gel” value [7] was “less retention of bacterial DNA”, the “bulk minimum inhibitory concentration (MIC)” value [8] was 2 µM and the HupA-mRuby2 localization [9] was “condensed the fluorescence near the center of the cell”. The “chromosome localization pattern (Sytox Green)” value [9] was “no significant change in localization”.

For polymyxin B [PMB, reference compound], the “AF-H2A uptake (cellular fluorescence)” value [1] was “significantly enhanced AF-H2A uptake” and the “E. coli growth (growth rate, lag time)” value [2] was “slightly inhibited growth”.

— US20220265766A1, “ANTIMICROBIAL THERAPY THROUGH THE COMBINATION OF PORE-FORMING AGENTS AND HISTONES” (THE REGENTS OF THE UNIVERSITY OF CALIFORNIA, priority 2019, published 2022)
